Test results as given in publication PMC7179167 (Molecules, 2020).
Values after ≈ are worked out from the molar mass of the structure shown.

Legend:
B. subtilis (ATCC 6633) = assay: Disk diffusion antimicrobial test, B. subtilis; assay type: cell-based, Bacillus subtilis; conditions: Bacillus subtilis, ATCC6633, Gram-positive, 20 mg per disc (title), concentration 20 µg (footnote)
Protocol: (§1) The newly synthesized compounds were chosen to be evaluated in vitro towards a variety of pathogenic microorganisms; Gram-positive bacteria: S. aureus (ATCC 6538) and B. subtilis (ATCC 6633); Gram-negative bacteria: P. areuginosa (ATCC 27853) and E. coli (DSMZ 1058); yeast: C. albicans (ATCC 10231) and S. cerevisiae (ATCC 9080) and fungi: A. niger (NRRL A-326) using the disk diffusion method at a single dose of 20 µl. The results are shown in Table 1 as the growth inhibition zone (mm).
(§2) The antimicrobial activity of target compounds were evaluated to be in vitro against a variety of pathogenic microorganisms, namely Staphylococcus aureus (ATCC 6538), Bacillus subtilis (ATCC 6633) (Gram-positive bacteria), Pseudomonas areuginosa (ATCC 27853), Escherichia coli (DSMZ 1058) (Gram-negative bacteria), Candida albicans (ATCC 10231), Saccharomyces cerevisiae (ATCC 9080) (Yeast) and Aspergillus niger (NRRL A-326) (Fungi) using the disk diffusion method at a single dose of 20 µg. The microorganisms were served and obtained from the Microbial Biotechnology Department, National Research Center, Giza, Egypt. Amphotericin, amoxicillin and ciprofloxacin were used as reference drugs (Oxoid™ Disks). The tested compounds 11a–c, 12a–c, 13a–i, 14a–i and 15a,b were dissolved in dimethylsulphoxide (DMSO) at a concentration of 1 mg/mL. Aliquots of 20 μl were soaked on filter paper discs (6 mm) and dried at room temperature under sterilized conditions. The paper discs were placed on inoculated agar plats and then incubated for 24 h at 37 °C for bacterial strains and after 48–72 h incubation at 30 °C for fungi. Both bacterial and yeast strains were grown on nutrient agar medium (g/l): beef extract, 3; peptone, 10 and agar, 20 at pH of 7.2. The fungal strain was grown on Czapek-Dox medium (g/l): sucrose, 30; NaNO3, 3; MgSO4.7H2O, 0.5l; KCl, 0.5; FeSO4, 0.01; K2HPO4, 1 and agar, 20 at pH of 6.0.

[1] = tested on: P. aeruginosa (ATCC 27853); assay: Disk diffusion antimicrobial test, P. aeruginosa; assay type: cell-based, Pseudomonas areuginosa; conditions: Pseudomonas aeruginosa, ATCC27853, Gram-negative, 20 mg per disc (title), concentration 20 µg (footnote)
Protocol: as §1, §2

C. albicans (ATCC 10231) = assay: Disk diffusion antimicrobial test, C. albicans; assay type: cell-based, Candida albicans; conditions: Candida albicans, ATCC10231, disk diffusion; yeast; 20 mg per disc (title), concentration 20 µg (footnote)
In short: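 Disk diffusion: 6 mm paper discs soaked with 20 μl compound in DMSO at 1 mg/mL, placed on inoculated nutrient agar (pH 7.2). Bacteria incubated 24 h at 37 °C, yeast 48–72 h at 30 °C; growth inhibition zone measured in mm.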

[2] = tested on: HCT-116 (human colon cancer); assay: MTT cytotoxicity assay, HCT-116; assay type: cell-based; conditions: Homo sapiens; for inhibition at 100 µg/mL: HCT-116, 100 µg/ml, 48 h, read-out: Growth Inhibition (%) HCT-116; for IC50: HCT-116, 48 h, 48 h post-treatment
Protocol: (§5) MCF-7 (human breast cancer), HCT-116 (human colon cancer) and HepG2 (human liver cancer) cell lines were obtained from Karolinska Institute, Stockholm, Sweden. All cells were maintained in RPMI 1640 medium. The media were supplemented with 10% heat-inactivated fetal bovine serum plus 1% antibiotic-antimycoticmixture (10,000 U/mL of potassium penicillin, 10,000 μg/mL of streptomycin sulfate, 25 μg/mL of amphotericin B and 1% of L glutamine (Biowest, USA)). BJ-1 of a human skin fibroblast derived from normal foreskin was obtained from ATCC® CRL-2522™ as a frozen ampoule with about 1 × 10^6 cells per 1 ml volume. BJ-1 was maintained in MEM with 2 mM of L-glutamine and Earle’s salts medium.
(§6) Cell viability was studied using the MTT 3-(4,5-dimethylthiazol-2-yl)-2,5-diphenyl-tetrazolium bromide (Bio Basic Canada Inc. Toronto, Canada) assay [33]. The steps were executed in a sterile laminar air flow cabinet biosafety class II level (Baker, SG403INT; Sanford, ME, USA). All incubations were carried out at 37 °C in a 5% CO2 incubator under a humidified atmosphere of 95% (Sheldon, TC2323; Cornelius, OR, USA). Cells were seeded into 96-well microtiter plastic plates at a concentration of (10^4 cells/well) and allowed to adhere for 24 h. The medium was aspirated and then added to the cells with the test compounds 11a–c, 12a–c, 13a–i, 14a–i and 15a,b at a single dose of 100 μg/mL in DMSO. After incubation of the medium for 48 h, 40 μL of MTT salt (2.5 μg/mL) was added to each well and then incubated for an additional 4 h. To stop the reaction and dissolve any formed formazan crystals, 200 μL of 10% sodium dodecyl sulfate (SDS) were added to each well and incubated overnight at 37 °C. The amount of formazan product was measured at 595 nm with a reference wavelength of 690 nm as a background using a microplate reader (Bio-Rad Laboratories, model 3350, California, USA). For the untreated cells (negative control), the medium was added instead of the tested compounds. […] Dimethylsulfoxide (DMSO) was the vehicle used for dissolution of the testing compound, and its final concentration on the cells was less than 0.2%. At the same dilution, the solvent concentration was the same for all drugs and between the control and drug treatments.

[3] = tested on: MCF-7 (human breast cancer); assay: MTT cytotoxicity assay, MCF-7; assay type: cell-based; conditions: for inhibition at 100 µg/mL: MCF7, 100 µg/ml, 48 h, read-out: Growth Inhibition (%) MCF-7; for IC50: MCF7, 48 h post-treatment
Protocol: as §5, §6

[4] = tested on: normal skin fibroblast cells (BJ-1); assay: MTT cytotoxicity assay, normal skin fibroblast BJ-1; assay type: cell-based; conditions: Homo sapiens, 48 h, read-out: Growth Inhibition (%) BJ-1
Protocol: as §5, §6

caspase-3 [5] = assay: Caspase-3 colorimetric assay in MCF-7 cells; assay type: cell-based, human; conditions: for Caspase-3 Activity %: MCF-7 cells treated at IC50 concentration, control 10.2 ± 2.84, mean ± SD; for Elevation of active caspase-3 protein levels compared to the control: MCF-7 cells, IC50 concentration
Excerpt: (§3) The promising antiproliferative results reported for compounds 11a, 11b, 12a, 12b and 13c against cell lines under study have prompted us to investigate the mechanism of cell death induced by these compounds. Apoptosis induction was examined in both MCF-7 and HCT-116 cancer cells by assaying the level of its key protein markers, namely: proapoptotic (p53, Bcl 2-associated X, Bax and caspases3) and antiapoptotic (B-cell lymphoma-2, Bcl-2). MCF-7 and HCT-116 cells undergoing apoptosis was detected by use of the ELISA technique. Protein marker levels were quantified according to Bradford assay.
(§4) Briefly, cells ([…] and HCT) were seeded at a concentration of 1.2–1.8 × 10^3 cells/well in 6-well plates. After 48-h treatment, the collected cells were lysed and centrifuged at 10,000 rpm for 20 min at 4 °C. The protein concentration was measured in the supernatant by Bradford protein assay. Volume containing […] of total protein was incubated with […] of caspase substrate in […] of the reaction buffer at 37 °C for 1 h in the dark. Caspase-3 activity was determined by a microplate reader at 405 nm using a caspase-3 colorimetric assay kit (Abcam) according to the manufacturer’s instructions. In vitro protein level quantitative measurement of apoptotic marker p53, Bcl-2-associated X (Bax) and antiapoptotic marker B-cell lymphoma-2 (Bcl-2) in cell lysate were assessed by Enzyme-Linked Immunosorbent Assay Simple Step ELISA® (ab199080, ab119506 and ab171571; Abcam) according to the manufacturer’s instructions.

p53 [6] = assay: p53 ELISA in MCF-7 cells; assay type: cell-based, human; conditions: MCF-7 cells treated at IC50 concentration; control 4.18 ± 0.58; mean ± SD
Excerpt: as §3, §4

Bax [7] = assay: Bax ELISA in MCF-7 cells; assay type: cell-based, human; conditions: MCF-7 cells treated at IC50 concentration; control 39.56 ± 4.56; mean ± SD
Excerpt: as §3, §4

caspase-3 [8] = assay: Caspase-3 colorimetric assay in HCT-116 cells; assay type: cell-based, human; conditions: HCT-116 cells treated at IC50 concentration; control 13.60 ± 2.45; mean ± SD
Excerpt: as §3, §4

Bcl-2 = Bcl-2 ELISA in HCT-116 cells; assay type: cell-based, human; conditions: for Bcl-2 (ng/50 mg Protein): HCT-116 cells treated at IC50 concentration, control 23.56 ± 3.56, mean ± SD; for Reduction of expression level of antiapoptotic protein Bcl-2 compared to the control: HCT-116 cells, IC50 concentration
Excerpt: as §3, §4

p53 [9] = assay: p53 ELISA in HCT-116 cells; assay type: cell-based, human; conditions: HCT-116 cells treated at IC50 concentration; control 1.68 ± 0.06; mean ± SD
Excerpt: as §3, §4

Bax [10] = assay: Bax ELISA in HCT-116 cells; assay type: cell-based, human; conditions: HCT-116 cells treated at IC50 concentration; control 118.54 ± 0.83; mean ± SD
Excerpt: as §3, §4

| SMILES | zone of inhibition at 20 µg/disc (B. subtilis (ATCC 6633)) | zone of inhibition at 20 µg/disc [1] | zone of inhibition at 20 µg/disc (C. albicans (ATCC 10231)) | inhibition at 100 µg/mL [2] | IC50 [2] | inhibition at 100 µg/mL [3] | IC50 [3] | inhibition at 100 µg/mL [4] | Caspase-3 Activity % (caspase-3 [5]) | Elevation of active caspase-3 protein levels compared to the control (caspase-3 [5]) | p53 (Pg/50 mg Protein) (p53 [6]) | Bax (pg/50 mg Protein) (Bax [7]) | Caspase-3 Activity % (caspase-3 [8]) | Bcl-2 (ng/50 mg Protein) (Bcl-2) | Reduction of expression level of antiapoptotic protein Bcl-2 compared to the control (Bcl-2) | p53 (pg/50 mg Protein) (p53 [9]) | Bax (pg/50 mg Protein) (Bax [10]) |
| --- | --- | --- | --- | --- | --- | --- | --- | --- | --- | --- | --- | --- | --- | --- | --- | --- | --- |
| COc1cc2occc2c(OC)c1C1=NNC2(C1)C(=O)Nc1ccccc12 (stereo not drawn) [Compound 11b, 5’-(4,6-Dimethoxy-benzofuran-5-yl)-2’,4’-dihydrospiro(indoline-3,3’-pyrazol)-2-one] | 12 mm | 12 mm | 18 mm | 94.9% | 16.4 µg/mL (≈ 45.1 µM) | 92.3% | 19.4 µg/mL (≈ 53.4 µM) | 10.1% | 16.19 ± 0.79% | ~ 1.6 folds | 5.85 ± 0.75 Pg/50 mg Protein | 109.35 ± 4.05 pg/50 mg Protein | 14.04 ± 0.54% | 7.25 ± 1.45 ng/50 mg Protein | ~76% | 3.25 ± 0.15 pg/50 mg Protein | 119.14 ± 1.65 pg/50 mg Protein |
| COc1c(C2=NNC3(C2)C(=O)Nc2ccccc23)c(OC)c2ccoc2c1OC (stereo not drawn) [Compound 12b, 5’-(4,6,7-Trimethoxy-benzofuran-5-yl)-2’,4’-dihydrospiro(indoline-3,3’-pyrazol)-2-one] | 18 mm | 24 mm | 10 mm | 95.1% | 7.9 µg/mL (≈ 20.1 µM) | 97.4% | 16.7 µg/mL (≈ 42.5 µM) | 5% | 47.25 ± 1.89% | ~4.6 folds | 29.58 ± 2.53 Pg/50 mg Protein | 167.07 ± 4.83 pg/50 mg Protein | 33.12 ± 1.37% | 18.87 ± 1.84 ng/50 mg Protein |  | 48.07 ± 1.94 pg/50 mg Protein | 191.07 ± 1.95 pg/50 mg Protein |
| COc1c(C2=NNC3(C2)C(=O)Nc2ccccc23)c(O)cc2occc12 (stereo not drawn) [Compound 11a, 5’-(6-Hydroxy-4-methoxy-benzofuran-5-yl)-2’,4’-dihydrospiro(indoline-3,3’-pyrazol)-2-one] | 12 mm | 8 mm | 20 mm | 96.2% | 5.7 µg/mL (≈ 16.3 µM) | 94.3% | 21.1 µg/mL (≈ 60.4 µM) | 6.2% | 16.67 ± 0.67% | ~ 1.6 folds | 14.45 ± 0.82 Pg/50 mg Protein | 122.34 ± 3.45 pg/50 mg Protein | 19.12 ± 0.89% | 8.2 ± 1.26 ng/50 mg Protein | ~ 66% | 16.2 ± 0.56 pg/50 mg Protein | 159.26 ± 0.96 pg/50 mg Protein |
| COc1c(C2=NNC3(C2)C(=O)Nc2ccccc23)c(O)c(OC)c2occc12 (stereo not drawn) [Compound 12a, 5’-(6-Hydroxy-4,7-dimethoxy-benzofuran-5-yl)-2’,4’-dihydrospiro(indoline-3,3’-pyrazol)-2-one] | 16 mm | 18 mm | 12 mm | 96.7% | 5.8 µg/mL (≈ 15.3 µM) | 93.6% | 20.2 µg/mL (≈ 53.2 µM) | 9.1% | 14.18 ± 0.74% | ~1.4 folds | 13.31 ± 1.08 Pg/50 mg Protein | 113.09 ± 1.98 pg/50 mg Protein | 17.43 ± 0.58% | 21.13 ± 1.45 ng/50 mg Protein |  | 23.11 ± 1.22 pg/50 mg Protein | 124.56 ± 0.95 pg/50 mg Protein |
